System: C2C12 myotubes
Assay: Seahorse mito-stress test, oxygen consumption rate (OCR) in differentiated C2C12 myotubes
Format: cell-based
Details: for basal respiration (OCR): C2C12 myotubes exposed 24 hours, compared to control and vehicle control (PBS), FIG. 1 / FIG. 2
Experimental: The execution of the “Seahorse” experiment as used in this example is explained in more detail in Traba et al. (2016) J. Vis. Exp. (117), e54918 especially in FIG. 1 and text relating thereto, and in Rose S, et al. (2014) Oxidative Stress Induces Mitochondrial Dysfunction in a Subset of Autism Lymphoblastoid Cell Lines in a Well-Matched Case Control Cohort. PLoS ONE 9(1): e85436. doi:10.1371/journal.pone.0085436. Briefly, in the Seahorse essay, the Oxygen Consumption Rate (OCR) is measured before and after the addition of inhibitors to derive several parameters of mitochondrial respiration. Initially, baseline cellular OCR is measured, from which basal respiration can be derived by subtracting non-mitochondrial respiration. Next oligomycin, a complex V inhibitor, is added and the resulting OCR is used to derive ATP-linked respiration (by subtracting the oligomycin rate from baseline cellular OCR) and proton leak respiration (by subtracting non-mitochondrial respiration from the oligomycin rate). Next carbonyl cyanide-p-trifluoromethoxyphenyl-hydrazon (FCCP), a protonophore, is added to collapse the inner membrane gradient, allowing the ETC to function at its maximal rate, and maximal respiratory capacity is derived by subtracting nonmitochondrial respiration from the FCCP rate. […] Mitochondrial reserve capacity is calculated by subtracting basal respiration from maximal respiratory capacity. C2C12 cells were routinely cultured in High Glucose Dulbecco's Modified Eagle's Medium (DMEM) supplemented with 10% (v/v) fetal calf serum (FCS), 2 mM glutamine, 25 mM HEPES pH 7.2 and 1% (v/v/v) pen/strep/amphotericin B at 5% CO2 and 37 degrees Celsius. For Seahorse experiments, C2C12 myoblasts (passage 10-20, ATCC) were plated in the morning in XFe96 Seahorse culture plates at a density of 30.000 cells/well. Cells were kept in the flow cabinet for 1 h before being transferred to the incubator. After approximately 6-8 h cells, culture medium was replaced with C2C12 differentiation medium (DMEM with 2% horse serum). C2C12 cells were allowed to differentiate for 5 to 7 days. On the day before the Seahorse run, myotubes were exposed to different nutrients and/or Extracellular Vesicles (mEVs) for 24 hours. Exposure medium was prepared in C2C12 differentiation medium. Galactose and glucose were supplemented to differentiation medium from 1M stocks in H2O. […] In detail, following calibration and equilibration, plates were analyzed in measure/mix cycles of 3 minutes/2 minutes, respectively, in 180 ul Seahorse assay medium. […] In the final injection the nuclear fluorescent stain, Hoechst (40 uM), was also injected, to allow for cell number quantification. […] Images were analyzed using in-house generated scripts in ImageJ and R for processing data. […]

| SMILES | effect of a higher concentration on basal respiration (C2C12 myotubes, 1.4, 2.75, 5.5 mM, FIG. 2) | basal respiration (OCR) |
| --- | --- | --- |
| O=C[C@H](O)[C@@H](O)[C@@H](O)[C@H](O)CO [galactose, D-galactose] | increases |  |
| O=C[C@H](O)[C@@H](O)[C@@H](O)[C@H](O)CO [Sample 8, Galactose] |  | increase |
| O=C[C@H](O)[C@@H](O)[C@@H](O)[C@H](O)CO [Sample 6, Galactose] |  | increase |
| O=C[C@H](O)[C@@H](O)[C@@H](O)[C@H](O)CO [Sample 7, Galactose] |  | increase |

— patent US20260272988A1, “COMPOSITION COMPRISING MILK EXTRACELLULAR VESICLES AND GALACTOSE” (FrieslandCampina Nederland B.V., priority 2023, published 2026)
